Reference: patent US11324826B2, “Multifunctional treatment and diagnostic compositions and methods” (priority 2018, dated 2022)
Values joined by “and” are separate entries in the source; they are usually repeats but may differ in a detail not shown here. Equal entries are not always repeated.

What was measured:
BL21 E. coli [1] = experiment: In vitro BL21 E. coli growth inhibition in aerobic conditions, visible light versus dark; format: cell-based; conditions: growth recorded after 48 hours
Experimental: Method to assess bacteria inhibition examined in vitro effects with BL21 E. coli. […] Prior art procedure reported in Photochemistry and Photobiology 2010, 86 (4), 890-894 was followed to grow E. coli cells, even though other prior art procedures can be used. BL21 was selected because of availability. […] Luria Broth (LB)-Lennox formulation were allowed to grow in an incubator at 28° C. shaking at 250 rpm until the beginning of their exponential growth phase (A600=0.2). For each experiment, one milliliter of the E. coli solution was centrifuged and washed with sterile water once. After removing washing liquid, the E. coli solutions were then re-suspended in 500.0 μL of sterile water and 200 μL of stock solutions of each of the following were added: (a) DHN (4.2×10^−44.20×10^−4 M), (b) Juglone (4.2×10^−44.20×10^−4 M), (c) Fe(III) (3.5×10^−4 M) and TMPyP (2.1×10^−52.10×10^−5 M), (d) DHN (4.2×10^−44.20×10^−4 M) and TMPyP (2.1×10^−52.10×10^−5 M), (e) Fe(III) (3.5×10^−4M), DHN (4.2×10^−4 M) and TMPyP (2.1×10^−5 M), (f) Fe(III) (3.5×10^−4 M), Juglone (4.2×10^−4 M) and TMPyP (2.1×10^−5 M), and TMPyP (2.1×10^−5).
Controls of each sample were prepared similarly and kept covered to assure that no light was reacted with the TMPyP while other samples were irradiated in a Rayonet photoreactor for 10 minutes. After irradiation, the 700.0 μL samples were briefly vortexed and then 20.0 μL of each sample was spread evenly over individual petri dishes containing LB agar. The plates were inverted, then incubated at 28° C. for 48 hours.
A “light versus dark” comparison study was performed by introducing treatment composition into two equal concentrations of E. coli bacteria solutions, one E. coli solution was kept in dark while other was irradiated with visible light.
As part of the test, a comparison study, including “light versus dark” was performed of treatment composition (FIG. 22E Fe(III) (3.5×10^−4 M), DHN (4.2×10^−4M) and TMPyP (2.1×10^−5 M), versus FIG. 22A DHN (4.2×10^−4 M), FIG. 22B Juglone (4.2×10^−4 M), FIG. 22C Fe(III) (3.5×10^−4 M) and TMPyP (2.1×10^−5 M), FIG. 22D DHN (4.2×10^−4 M) and TMPyP (2.1×10^−5 M), and FIG. 22F Fe(III) (3.5×10^−4 M), Juglone (4.2×10^−4 M) and TMPyP (2.1×10^−5 M).

[2] = reported in the prior art; cited from earlier work
BL21 E. coli [3] = experiment: In vitro BL21 E. coli growth inhibition in hydrogen peroxide rich environment under dark conditions; format: cell-based; conditions: alone at the experimental concentration (Fe(III) 1.0×10^−4 M or 1.0×10^−3 M; 400 μM H2O2)
Experimental: To determine utility for treatment of bacteria of the claimed treatment compositions in an aqueous H2O2 rich environment (typical tumor environment), E. coli bacteria were mixed with the treatment composition in the presence of H2O2 in dark conditions under normal room temperature and pressure. […] A series of control reactions were carried out to see if alone, any of Fe(III) ions with 1.0×10^−4 M concentration (FIG. 23A) or Fe(III) ions with 1.0×10^−3 M concentration (FIG. 23B) or 400 μM H2O2 (FIG. 23C) can inhibit the growth of E. coli bacteria under identical reaction conditions.

[4] = in water, prior art literature value; cited from earlier work
[5] = Photooxidation of DHN under visible light irradiation in aerobic solution, DHN absorption monitored at 301 nm; conditions: for Rate, first order rate constant of DHN photooxidation: aerobic conditions, visible light, acetonitrile:water (6:4)
Experimental: For a typical experiment, microliter amounts of standard solutions were combined, for illustration not limitation, microliter amounts of a standard solution of Fe(III) solutions (30 μL of 1.0×10^−2 M) and DHN solution (36 μL of 1.0×10^−2 M) added into a cuvette containing 3 mL of solution TMPyP (6.00×10^−6 M). Quartz cuvettes with 1 cm path-length and 3 mL volume were used for all measurements.
For singlet oxygenation of 1,5-dihydroxynaphthalene (DHN) by TMPyP in aqueous solution, a 3 mL solution of DHN (1.2×10^−4 M) and TMPyP (6.0×10^−6 M) was prepared by mixing 36 μL of 1×10^−2 M of DHN standard solution and 18 μL of 1×10^−3 M of TMPyP standard solution with ultrapure water. The solution was prepared at room temperature in an open atmosphere. Photooxygenation of samples was performed in a Rayonet photoreactor and monitored by recording a decrease of UV-vis absorption. For example, photoxygenation of DHN by TMPyP was performed in a Rayonet photoreactor for approximately twenty minutes at 28° C. and the photooxygenation of DHN was monitored by recording a decrease of UV-vis absorption of DHN at 301 nm for 20 minutes in 2 minutes intervals. The effect of metal ions on singlet oxygen generation was studied similarly except with the addition of microliter amounts of M^2+ or M^3+ ions (1×10^−2 M) (positively charged cations with a +2 charge or a +3 charge) into a DHN/TMPyP aqueous solution.

[6] = Photooxidation of DHN under visible light irradiation in anaerobic (argon purged) solution, DHN absorption monitored at 301 nm; conditions: for Photooxidation of DHN (in words): anaerobic; for Rate, first order rate constant of DHN photooxidation: anaerobic conditions, visible light, acetonitrile:water (6:4)
Experimental: First, the treatment composition (DHN+TMPyP+Fe(III)) was compared against commercially available Fe(III)TMPyP and prepared TMPyP+Fe(II), all in presence of DHN, to determine if any or all can produce hydroxyl radical (OH) in anaerobic condition. An aqueous solution of TMPyP and DHN was thoroughly purged with argon followed by irradiation with visible light. DHN's absorption at 301 nm was recorded in 2 minute intervals to monitor in situ production of OH in solution.

[7] = aqueous solution, 655 nm CW laser, calculated with Equation 1
Experimental: Singlet Oxygen Quantum Yield (ΦΔ) of TMPyP was determined using DHN (1.2×10^−4 M) as a singlet oxygen quencher and methylene blue (MB) as a reference standard. A 3 mL solution of TMPyP (6.0×10^−6 M) solution and MB (1.0×10^−5 M) solution both of which contain DHN (1.2×10^−4 M) were prepared. Each solution was irradiated with a 655 nm CW laser and the UV-vis spectrum of each solution was recorded at 1 min intervals for 5 minutes. The quantum yields were calculated with Equation 1 by using ΦΔ(s) of MB (ΦΔ=0.52) reported in the prior art.
[formula] In Equation 1, S is the slope of the plot of the absorbance versus irradiation, and F is the absorption correction factor.
To determine the efficiency of TMPyP for singlet oxygen generation in aqueous solution, ^1O2 quantum yield (ΦΔ) was calculated by using methylene blue as a standard with a known ΦΔ of 0.52. […] Most importantly, the reaction of DHN and ^1O2 can be monitored by observing gradual decrease of the absorption of DHN peaks from 295 nm to 355 nm and so DHN can be used as a ^1O2 probe for ^1O2 quantum yield (ΦΔ) measurement.
Above cited Equation 1 was followed to calculate ^1O2 quantum yield (ΦΔ) for TMPyP, where S is the slope of the plot of the absorbance versus irradiation, and F is the absorption correction factor.

[8] = aqueous solution 6.0×10^−6 M, excitation 423 nm, calculated with Equation 3
Experimental: For fluorescence study, three solutions of 3 mL volume were prepared. Study solution 1 (aqueous solution of TMPyP) was prepared by mixing 18 μL of 1.0×10^−3 M TMPyP with ultrapure water. Study solution 2 (aqueous solution of TMPyP and Fe(III) ions) was made by mixing 18 μL of 1.0×10^−3 M TMPyP and 30 μL of 1.0×10^−2 M iron(III) chloride with ultrapure water. Study solution 3 (aqueous solution of TMPyP and DHN) was prepared by mixing 18 μL of 1.0×10^−3 M TMPyP and 36 μL of 1.0×10^−2 M DHN with ultrapure water. Fluorescence emission was measured upon excitation of each solution at 423 nm with an excitation slit width of 10.0 nm and an emission slit width of 12.0 nm. Each experiment was carried out at room temperature and under normal atmospheric conditions.
Crystal violet (1.0×10^−5 M) with a known ΦF=0.020 in water was used as a standard.
Then the fluorescence quantum yield (ΦF) of TMPyP was calculated by using Equation 3 and crystal violet (1.0×10^−5 M) as a standard with ΦF=0.020 in water, fluorescence quantum yield known from the prior art.
[formula] where in Equation 3, A is the absorbance, F represents the area under the emissions curve, and n is the refractive index of the solvent used.

[9] = irradiated with visible light 10 minutes

Oc1cccc2c(O)cccc12 [DHN, 1,5-dihydroxynaphthalene]
Inhibition of E. coli growth (BL21 E. coli [1]; [9]): very marginal inhibition effect
Inhibition of E. coli growth (BL21 E. coli [1]; kept in dark): almost no inhibition

CN(C)c1ccc2nc3ccc(=[N+](C)C)cc-3sc2c1 [methylene blue]
Singlet oxygen quantum yield (ΦΔ), prior art [2]: 0.52

O=C1C=CC(=O)c2c(O)cccc21 [Juglone, 5-hydroxy-1,4-naphthalenedione]
Inhibition of E. coli growth (BL21 E. coli [1]; [9]): complete inhibition
Inhibition of E. coli growth (BL21 E. coli [1]; kept in dark): complete inhibition

OO [H2O2, hydrogen peroxide]
Inhibition of growth of E. coli, control alone (BL21 E. coli [3]): No noticeable inhibition

CN(C)c1ccc(C(=C2C=CC(=[N+](C)C)C=C2)c2ccc(N(C)C)cc2)cc1 [Crystal violet]
Fluorescence quantum yield (ΦF), prior art [4]: 0.020

C[n+]1ccc(C2=C3C=CC(=N3)C(c3cc[n+](C)cc3)=c3ccc4[n]3[Fe+][n]3c2ccc3C(c2cc[n+](C)cc2)=C2C=CC(=N2)C=4c2cc[n+](C)cc2)cc1 [Fe(III)TMPyP, Fe(III) bound meso-tetrakis(N-methyl-4-pyridyl) porphyrin]
Rate constant of photooxidation of DHN ([5]; aerobic aqueous environment, FIG. 11): 4.67e-05 s⁻¹
Rate Constant, kobs, of DHN decay kinetics ([5]; aerobic aqueous solution as printed, DHN 1.2×10^−4 M, porphyrin 6.0×10^−6 M, iron 1.0×10^−4 M, 301 nm): 5.5e-05 s⁻¹
Rate constant k of photo-oxidation of DHN ([6]; anaerobic aqueous environment, FIG. 12): 5.5e-05 s⁻¹

[Cl][Fe]([Cl])[Cl] [Fe(III) ions, iron (III) chloride]
Inhibition of growth of E. coli, control alone (BL21 E. coli [3]): No noticeable inhibition

C[n+]1ccc(-c2c3nc(c(-c4cc[n+](C)cc4)c4ccc([nH]4)c(-c4cc[n+](C)cc4)c4nc(c(-c5cc[n+](C)cc5)c5ccc2[nH]5)C=C4)C=C3)cc1.[Cl-].[Cl-].[Cl-].[Cl-] [TMPyP, meso-tetra(N-methyl-4-pyridyl) porphine tetrachloride]
Maximum rate of photooxidation of DHN by TMPyP (k) ([5]; aerobic, Fe(III) ions about 50 μL of 1.0×10^−2 M): 0.000943 s⁻¹
Rate constant of DHN photooxidation by TMPyP ([5]; aerobic, metal free solution): 0.000658 s⁻¹
Rate of photooxidation of DHN by TMPyP (k) ([5]; aerobic, upon addition of 10 μL of 1.0×10^−3 M of Fe(III) ions): 0.00039 s⁻¹
Rate of photooxidation of DHN by TMPyP (k) ([5]; aerobic, upon addition of 75 μL of 1.0×10^−2 M of Fe(III) ions): 0.000568 s⁻¹
Photooxidation of DHN (in words) ([6]; absence of Fe(III) ions, FIG. 13): negligible photooxidation
Photooxidation of DHN (in words) ([6]; presence of Fe(III) ions, FIG. 14): substantial photooxidation
Singlet oxygen quantum yield (ΦΔ) [7]: 0.503
Fluorescence quantum yield (ΦF) [8]: 0.0139
Singlet oxygen quantum yield (ΦΔ), prior art [2]: 0.58 and 0.74 and 0.9
Fluorescence quantum yield (ΦF), prior art [4]: 0.016

Oc1cccc(-c2c3nc(c(-c4cccc(O)c4)c4ccc([nH]4)c(-c4cccc(O)c4)c4nc(c(-c5cccc(O)c5)c5ccc2[nH]5)C=C4)C=C3)c1 [m−THP, meso-tetra(m-hydroxyphenyl)porphine]
Rate, first order rate constant of DHN photooxidation [5]: 0.0012 s⁻¹
Rate, first order rate constant of DHN photooxidation [6]: 4e-05 s⁻¹

Oc1ccc(-c2c3nc(c(-c4ccc(O)cc4)c4ccc([nH]4)c(-c4ccc(O)cc4)c4nc(c(-c5ccc(O)cc5)c5ccc2[nH]5)C=C4)C=C3)cc1 [p−THP, meso-tetra(p-hydroxyphenyl)porphine]
Rate, first order rate constant of DHN photooxidation [5]: 0.0008 s⁻¹
Rate, first order rate constant of DHN photooxidation [6]: 2e-05 s⁻¹
